Results from patent US20180238860A1, “INDIVIDUAL METHOD PREDICTIVE OF THE DNA-BREAKING GENOTOXIC EFFECTS OF CHEMICAL OR BIOCHEMICAL AGENTS” (priority 2015, published 2018).

Key:
Assay type in all cases: cell-based, human
[1] = test system: HMEC cells; test: Micronuclei per 100 cells 24 h after contacting, Table 4 lower part (HMEC); settings: line cell blank (below Hasp)
Description: (§1) In one embodiment, on receipt, the tissue sample (typically the biopsy) is established in the form of an amplifiable cell line without a viral or chemical transformation agent according to an ancillary procedure well known to culture laboratories, as underlined by the publication of Elkind et al. “The radiobiology of cultured mammalian cell”, Gordon and Breach (1967). Once the number of cells is sufficient (typically after 1 to 3 weeks), the first experiments are carried out using the process according to the invention. A cell sample is prepared: The cells are inoculated on glass coverslips in Petri dishes. A portion of these coverslips are contaminated with metals or pesticides or any other DNA-breaking chemical or biochemical agent at different concentrations. A further portion is not contaminated; it represents the spontaneous state. During contamination, the cells remain in the culture incubator at 37° C.
(§2) the cells are fixed in 3% paraformaldehyde and 2% sucrose for 15 minutes at ambient temperature and permeabilized in 20 mM HEPES buffer solution (4-(2-hydroxyethyl)-1-piperazine ethane sulfonic acid) at pH 7.4, 50 mM NaCl, 3 mM MgCl2, 300 mM sucrose, 0.5% Triton X-100 (a non-ionic surfactant having the formula t-Oct-C6H4-(OCH2CH2)×OH where x=9-10, CAS No. 9002-93-1, supplied for example by Sigma Aldrich) for 3 minutes. The glass coverslips are then washed in phosphate buffer saline (known as the acronym PBS) before immunological staining. The incubation took place for 40 min at 37° C. in PBS supplemented with 2% bovine serum albumin (known as the acronym BSA or fraction V, supplied for example by Sigma Aldrich) and was followed by a wash with PBS. Anti-pH2AX primary antibodies are used at a concentration of 1:800. The incubations with anti-mouse FITC or anti-rabbit TRITC secondary antibodies (1:100, supplied by Sigma Aldrich) were performed at 37° C. in 2% BSA for 20 minutes. Glass coverslips were treated with Vectashield™ containing DAPI (4,6-Diamidino-2-phenylindole) to label the nucleus. Staining with DAPI also makes it possible, indirectly, to determine the number of cells in phase G1 (nuclei with homogenous DAPI staining), in phase S (nuclei with numerous pH2AX foci), in phase G2 (nuclei with heterogeneous DAPI staining) and metaphases (visible chromosomes).
(§3) Counterstaining with DAPI (a DNA marker known to those skilled in the art) makes it possible to locate the nucleus to situate the cytoplasmic or nuclear location to quantify the micronuclei, which are complementary cell markers to the data on the foci.
(§4) The tables hereinafter summarize the results of numerous experiments which were carried out as described in the “Detailed description” section above.
(§5) In tables 3 and 4, “pH2AX” corresponds to the mean number of nuclear foci obtained with the marker pH2AX, 24 hours after contacting the cell sample with the chemical agent at the concentration C (NpH2AX(24 h, C)), and where “Micronuclei” corresponds to the mean number of micronuclei observed per 100 cells 24 hours after contacting the cell sample with the chemical agent at the concentration C(NMN(24 h, C)).

[2] = test system: HMEC cells; test: pH2AX foci 24 h after contacting, Table 4 lower part (HMEC endothelial cells); settings: for pH2AX: line cell blank (below Hasp), 24 hours after contacting
Description: as §1
(§6) For the contaminated cells, characteristics are acquired corresponding to the state after an incubation time with the DNA-breaking chemical or biochemical agent. Said characteristics are represented by foci corresponding to the marker pH2AX. The cells on glass coverslips are then fixed, lysed and hybridized. The following procedure, known per se (Bodgi et al, “A single formula to describe radiation-induced protein relocalization: towards a mathematical definition of individual radiosensitivity”, J Theor Biol. 21 p 333:135-45.2013):
as §2
(§7) The results are acquired using these coverslips on an immunofluorescence microscope (Olympus model for example). The reading may be direct (typically by counting the foci on at least 50 cells in G0/G1 for each point) or using dedicated image analysis software, or on an automated microscope; preferably the software or automated microscope methods are calibrated with manual determinations.
as §4, §5

[3] = test system: Hah (hippocampus astrocyte cells); test: pH2AX foci 24 h after contacting, Hah hippocampus astrocyte cells
Description: as §1, §6, §2, §7, §4
(§8) In tables 3 and 4, “pH2AX” corresponds to the mean number of nuclear foci obtained with the marker pH2AX, 24 hours after contacting the cell sample with the chemical agent at the concentration C (NpH2AX(24 h, C)), and where “Micronuclei” corresponds to the mean number of micronuclei observed per 100 cells 24 hours after contacting the cell sample with the chemical agent at the concentration C(NMN(24 h, C)). […]

[4] = test system: Hah (hippocampus astrocyte cells); test: Micronuclei per 100 cells 24 h after contacting, Hah
Description: as §1, §2, §3, §4, §5
(§9) Table 4 presents a detection of number of pH2AX foci and number of micronuclei 24 hours after contacting control nervous system cell lines Ha (astrocyte cells), Hah (hippocampus astrocyte cells) and Hasp (spinal cord astrocyte cells) with a metallic compound (AlCl3, Cu, CuCl2, CuSO4, Pb(NO3)2, CdCl2, Cd-acetate or Cd-acetate-citrate) according to the concentration of said metallic compound used.

[5] = test system: Ha (astrocyte cells); test: pH2AX foci 24 h after contacting, Ha astrocyte cells; settings: for pH2AX: Ha, 24 hours after contacting
Description: as §1, §6, §2, §7, §4, §8

[6] = test system: Ha (astrocyte cells); test: Micronuclei per 100 cells 24 h after contacting, Ha astrocyte cells
Description: as §1, §2, §3, §4, §5, §9

[7] = test system: Hasp (spinal cord astrocyte cells); test: Micronuclei per 100 cells 24 h after contacting, Hasp
Description: as §1, §2, §3, §4, §5, §9

[8] = test system: Hasp (spinal cord astrocyte cells); test: pH2AX foci 24 h after contacting, Hasp spinal cord astrocyte cells
Description: as §1, §6, §2, §7, §4, §8

CC(=O)[O-].CC(=O)[O-].[Cd+2] [Cd-acetate]
Micronuclei ([1]; 10 μM): 5 per 100 cells
Micronuclei ([1]; 30 μM): 10 per 100 cells
Micronuclei ([1]; 100 μM): 10 per 100 cells
pH2AX ([2]; 10 μM): 5 foci
pH2AX ([2]; 30 μM): 5.5 foci
pH2AX ([2]; 100 μM): 7 foci

[Cl][Al]([Cl])[Cl] [AlCl3]
pH2AX ([3]; 3 μM): 0.07 foci
pH2AX ([3]; 10 μM): 0.68 foci
pH2AX ([3]; 30 μM): 0.83 foci
pH2AX ([3]; 100 μM): 1.22 foci
pH2AX ([3]; 300 μM): 1.77 foci
pH2AX ([3]; 1000 μM): 2.28 foci
Micronuclei ([4]; 3 μM): 2 per 100 cells
Micronuclei ([4]; 10 μM): 2 per 100 cells
Micronuclei ([4]; 30 μM): 4 per 100 cells
Micronuclei ([4]; 100 μM): 6 per 100 cells
Micronuclei ([4]; 300 μM): 20 per 100 cells
Micronuclei ([4]; 1000 μM): 30 per 100 cells
Micronuclei ([1]; 3 μM): 1.75 per 100 cells
Micronuclei ([1]; 10 μM): 3.75 per 100 cells
Micronuclei ([1]; 30 μM): 5 per 100 cells
Micronuclei ([1]; 100 μM): 4.33 per 100 cells
Micronuclei ([1]; 300 μM): 7.33 per 100 cells
Micronuclei ([1]; 1000 μM): 11.5 per 100 cells
pH2AX ([5]; 3 μM): 0.34 foci
pH2AX ([5]; 10 μM): 0.88 foci
pH2AX ([5]; 30 μM): 1.37 foci
pH2AX ([5]; 100 μM): 2.18 foci
pH2AX ([5]; 300 μM): 2.96 foci
pH2AX ([5]; 1000 μM): 6.04 foci
H2AX foci ([5]; astrocytes (HA cells) contaminated with 100 μM): 2 foci
H2AX foci ([2]; endothelial cells (HMEC cells), 100 μM): 3.7 foci
pH2AX ([2]; 3 μM): 3.2 foci
pH2AX ([2]; 10 μM): 3.2 foci
pH2AX ([2]; 30 μM): 5.7 foci
pH2AX ([2]; 100 μM): 3.7 foci
pH2AX ([2]; 300 μM): 4.5 foci
pH2AX ([2]; 1000 μM): 9.9 foci
Micronuclei ([6]; 3 μM): 10 per 100 cells
Micronuclei ([6]; 10 μM): 15 per 100 cells
Micronuclei ([6]; 30 μM): 16.7 per 100 cells
Micronuclei ([6]; 100 μM): 46.7 per 100 cells
Micronuclei ([6]; 300 μM): 56.7 per 100 cells
Micronuclei ([6]; 1000 μM): 70 per 100 cells
Micronuclei ([7]; 3 μM): 2 per 100 cells
Micronuclei ([7]; 10 μM): 4 per 100 cells
Micronuclei ([7]; 30 μM): 4 per 100 cells
Micronuclei ([7]; 100 μM): 7.3 per 100 cells
Micronuclei ([7]; 300 μM): 8.7 per 100 cells
Micronuclei ([7]; 1000 μM): 13 per 100 cells
pH2AX ([8]; 3 μM): 0.84 foci
pH2AX ([8]; 10 μM): 0.46 foci
pH2AX ([8]; 30 μM): 0.74 foci
pH2AX ([8]; 100 μM): 2.15 foci
pH2AX ([8]; 300 μM): 1.7 foci
pH2AX ([8]; 1000 μM): 1.62 foci

O=S(=O)([O-])[O-].[Cu+2] [CuSO4]
Micronuclei ([1]; 3 μM): 3 per 100 cells
Micronuclei ([1]; 10 μM): 5 per 100 cells
Micronuclei ([1]; 30 μM): 4.7 per 100 cells
Micronuclei ([1]; 100 μM): 5.3 per 100 cells
Micronuclei ([1]; 300 μM): 9.3 per 100 cells
Micronuclei ([1]; 1000 μM): 4 per 100 cells
pH2AX ([2]; 3 μM): 1.9 foci
pH2AX ([2]; 10 μM): 2.3 foci
pH2AX ([2]; 30 μM): 3.4 foci
pH2AX ([2]; 100 μM): 6.4 foci
pH2AX ([2]; 300 μM): 20.1 foci
pH2AX ([2]; 1000 μM): 30.2 foci

Cd-acetate-citrate
pH2AX ([2]; 10 μM): 1 foci
pH2AX ([2]; 30 μM): 4.75 foci
pH2AX ([2]; 100 μM): 7 foci
